This note sets out measurements from ChEMBL document CHEMBL1130461, “Polyclonal catalytic antibody for hetero-cycloaddition of hepta-1,3-diene with ethyl glyoxylate an approach to the synthesis of 2-nonulosonic acid analogs” (Bioorg Med Chem Lett, 1997).

SMILES strings stand for the structures.

By Km is commonly meant the concentration of substrate that gives half-maximal velocity. The term Vmax denotes the rate approached at saturating substrate.

The nature of series [1]: Michaelis-Menten constant in polyclonal antibody reactions. It counts as ADME.
Series [2] can be described thus: Vmax in polyclonal antibody reactions. It counts as ADME.

As for `C=C/C=C/CCOC(=O)CCC(=O)OCc1ccccc1`, in series [1], the Km was found to be 96 µM. Further, the Vmax in series [2] came to 0.98 µM/min.
